One may read the melting point as the temperature, or range, at which the solid turns liquid. `COC1=C(OC)C(=O)C(Cc2ccc(C(=O)Nc3ccc(OC)nc3)c(O)c2)=C(C)C1=O` [Example 135, N-(6-Methoxypyridin-3-yl)-4-(5,6-dimethoxy-3-methyl-1,4-benzoquinon-2-yl)methyl-2-hydroxybenzamide] came in with a melting point of 194.3 to 196.5 °C.

Molecule `COC1=C(OC)C(=O)C(Cc2ccc(C(=O)Nc3ccc(S(=O)(=O)C(F)(F)F)cc3)c(O)c2)=C(C)C1=O` [Example 137, N-[4-(5,6-Dimethoxy-3-methyl-1,4-benzoquinon-2-yl)methyl-2-hydroxybenzoyl]-4-(trifluoromethylsulfonyl)aniline] came in with a melting point of 186.9 to 187.5 °C. In the case of `COC1=C(OC)C(=O)C(Cc2ccc(C(=O)Nc3cccnc3)c(OC(C)=O)c2)=C(C)C1=O` [Example 138, N-(Pyridin-3-yl)-4-(5,6-dimethoxy-3-methyl-1,4-benzoquinon-2-yl)methyl-2-acetoxybenzamide], the melting point was in the range of 158.2 to 160 °C. As for `COC1=C(OC)C(=O)C(Cc2ccc(C(=O)Nc3cccnc3)c(O)c2)=C(C)C1=O` [Example 139, N-(Pyridin-3-yl)-4-(5,6-dimethoxy-3-methyl-1,4-benzoquinon-2-yl)methyl-2-hydroxybenzamide], the figure is 138.1 to 139.7 °C; as for `COC1=C(OC)C(=O)C(Cc2ccc(C(=O)Nc3ccncc3)c(O)c2)=C(C)C1=O` [Example 140, N-(Pyridin-4-yl)-4-(5,6-dimethoxy-3-methyl-1,4-benzoquinon-2-yl)methyl-2-hydroxybenzamide], 181.4 to 183.3 °C; as for `COC1=C(OC)C(=O)C(Cc2ccc(OC(C)=O)c(C(=O)Nc3ccc(F)cc3)c2)=C(C)C1=O` [Example 141, N-[5-(5,6-Dimethoxy-3-methyl-1,4-benzoquinon-2-yl)methyl-2-acetoxybenzoyl]-4-fluoroaniline], 128.5 to 130.5 °C. Molecule `COC1=C(OC)C(=O)C(Cc2ccc(OC(C)=O)c(C(=O)Nc3cccc([N+](=O)[O-])c3)c2)=C(C)C1=O` [Example 143, N-[5-(5,6-Dimethoxy-3-methyl-1,4-benzoquinon-2-yl)methyl-2-acetoxybenzoyl]-3-nitroaniline] showed a melting point of 152 to 153.5 °C. As for `COC1=C(OC)C(=O)C(Cc2ccc(O)c(C(=O)Nc3cccc([N+](=O)[O-])c3)c2)=C(C)C1=O` [Example 144, N-[5-(5,6-Dimethoxy-3-methyl-1,4-benzoquinon-2-yl)methyl-2-hydroxybenzoyl]-3-nitroaniline], the figure is 153 to 154 °C.

Turning to `COC1=C(OC)C(=O)C(Cc2ccc(OC(C)=O)c(C(=O)Nc3ccccc3C(F)(F)F)c2)=C(C)C1=O` [Example 145, N-[5-(5,6-Dimethoxy-3-methyl-1,4-benzoquinon-2-yl)methyl-2-acetoxybenzoyl]-2-trifluoromethylaniline], the melting point was in the range of 57.5 to 60 °C. Take `COC1=C(OC)C(=O)C(Cc2ccc(OC(C)=O)c(C(=O)Nc3cccc(C(F)(F)F)c3)c2)=C(C)C1=O` [Example 151, N-[5-(5,6-Dimethoxy-3-methyl-1,4-benzoquinon-2-yl)methyl-2-acetoxybenzoyl]-3-trifluoromethylaniline]: the melting point was 98 to 100 °C. As for `COC1=C(OC)C(=O)C(Cc2ccc(O)c(C(=O)Nc3cccc(C(F)(F)F)c3)c2)=C(C)C1=O` [Example 152, N-[5-(5,6-Dimethoxy-3-methyl-1,4-benzoquinon-2-yl)methyl-2-hydroxybenzoyl]-3-trifluoromethylaniline], the figure is 127.5 to 130 °C; as for `COC1=C(OC)C(=O)C(Cc2ccc(OC(C)=O)c(C(=O)Nc3ccccc3[N+](=O)[O-])c2)=C(C)C1=O` [Example 153, N-[5-(5,6-Dimethoxy-3-methyl-1,4-benzoquinon-2-yl)methyl-2-acetoxybenzoyl]-2-nitroaniline], 97.5 to 100 °C. As for `COC1=C(OC)C(=O)C(Cc2ccc(O)c(C(=O)Nc3ccccc3[N+](=O)[O-])c2)=C(C)C1=O` [Example 154, N-[5-(5,6-Dimethoxy-3-methyl-1,4-benzoquinon-2-yl)methyl-2-hydroxybenzoyl]-2-nitroaniline], the figure is 155 to 156 °C; as for `COC1=C(OC)C(=O)C(Cc2ccc(OC(C)=O)c(C(=O)Nc3ccccn3)c2)=C(C)C1=O` [Example 155, N-(Pyridin-2-yl)-5-(5,6-dimethoxy-3-methyl-1,4-benzoquinon-2-yl)methyl-2-acetoxybenzamide], 124 to 126.5 °C; as for `COC1=C(OC)C(=O)C(Cc2ccc(O)c(C(=O)Nc3ccccn3)c2)=C(C)C1=O` [Example 156, N-(Pyridin-2-yl)-5-(5,6-dimethoxy-3-methyl-1,4-benzoquinon-2-yl)methyl-2-hydroxybenzamide], 180 to 183 °C.

In turn, `COC1=C(OC)C(=O)C(Cc2ccc(OC(C)=O)c(C(=O)NC3CC3)c2)=C(C)C1=O` [Example 159, N-Cyclopropyl-5-(5,6-dimethoxy-3-methyl-1,4-benzoquinon-2-yl)methyl-2-acetoxybenzamide] returned a melting point of 95.5 to 98 °C.

With `COC1=C(OC)C(=O)C(Cc2ccc(O)c(C(=O)NC3CC3)c2)=C(C)C1=O` [Example 160, N-Cyclopropyl-5-(5,6-dimethoxy-3-methyl-1,4-benzoquinon-2-yl)methyl-2-hydroxybenzamide], the melting point fell in the range of 111 to 112 °C. To `COC1=C(OC)C(=O)C(Cc2ccc(OC(C)=O)c(C(=O)NC3CCCCC3)c2)=C(C)C1=O` [Example 161, N-Cyclohexyl-5-(5,6-dimethoxy-3-methyl-1,4-benzoquinon-2-yl)methyl-2-acetoxybenzamide] belongs 137.5 to 140 °C.

On to `COC1=C(OC)C(=O)C(Cc2ccc(O)c(C(=O)NC3CCCCC3)c2)=C(C)C1=O` [Example 162, N-Cyclohexyl-5-(5,6-dimethoxy-3-methyl-1,4-benzoquinon-2-yl)methyl-2-hydroxybenzamide], for which the melting point is 107 to 109 °C. `COC1=C(OC)C(=O)C(Cc2cccc(C(=O)Nc3ccc(C(F)(F)F)cc3)c2OC(C)=O)=C(C)C1=O` [Example 165, N-[3-(5,6-Dimethoxy-3-methyl-1,4-benzoquinon-2-yl)methyl-2-acetoxybenzoyl]-4-trifluoromethylaniline] registered a melting point of 163 to 166 °C.

`COC1=C(OC)C(=O)C(Cc2cccc(C(=O)Nc3ccc(C(F)(F)F)cc3)c2O)=C(C)C1=O` [Example 166, N-[3-(5,6-Dimethoxy-3-methyl-1,4-benzoquinon-2-yl)methyl-2-hydroxybenzoyl]-4-trifluoromethylaniline] returned a melting point of 129 to 131.5 °C. As to `CCOC(=O)c1ccc(NC(=O)c2cc(CC3=C(C)C(=O)C(OC)=C(OC)C3=O)ccc2OCc2cccnc2)cc1` [Example 167, Ethyl N-[5-(5,6-dimethoxy-3-methyl-1,4-benzoquinon-2-yl)methyl-2-(3-pyridylmethyloxy)benzoyl]-4-aminobenzoate], the melting point fell in the range of 83 to 85.5 °C. With `COC1=C(OC)C(=O)C(Cc2ccc(OCc3cccnc3)c(C(=O)Nc3ccncc3)c2)=C(C)C1=O` [Example 168, N-(Pyridin-4-yl)-5-(5,6-dimethoxy-3-methyl-1,4-benzoquinon-2-yl)methyl-2-(3-pyridylmethyloxy)benzamide], the melting point is 116 to 119 °C. Turning to `COC1=C(OC)C(=O)C(Cc2ccc(OCc3cccnc3)c(C(=O)Nc3cccnc3)c2)=C(C)C1=O` [Example 169, N-(Pyridin-3-yl)-5-(5,6-dimethoxy-3-methyl-1,4-benzoquinon-2-yl)methyl-2-(3-pyridylmethyloxy)benzamide], the melting point lay in the range of 135 to 137 °C. Regarding `COC1=C(OC)C(=O)C(Cc2ccc(OCc3cccnc3)c(C(=O)NC3CC3)c2)=C(C)C1=O` [Example 170, N-Cyclopropyl-5-(5,6-dimethoxy-3-methyl-1,4-benzoquinon-2-yl)methyl-2-(3-pyridylmethyloxy)benzamide], the melting point lay in the range of 87 to 89.5 °C.

For the molecule `COC1=C(OC)C(=O)C(Cc2ccc(OCc3cccnc3)c(C(=O)Nc3ccc(C(F)(F)F)cc3)c2)=C(C)C1=O` [Example 172, N-[5-(5,6-Dimethoxy-3-methyl-1,4-benzoquinon-2-yl)methyl-2-(3-pyridylmethyloxy)benzoyl]-4-trifluoromethylaniline], the melting point fell in the range of 173 to 176 °C. The molecule `COC1=C(OC)C(=O)C(Cc2cccc(C(=O)Nc3ccc(S(=O)(=O)C(F)(F)F)cc3)c2OC(C)=O)=C(C)C1=O` [Example 175, N-[3-(5,6-Dimethoxy-3-methyl-1,4-benzoquinon-2-yl)methyl-2-acetoxybenzoyl]-4-(trifluoromethylsulfonyl)aniline] returned a melting point of 87 to 89 °C.

The molecule `COC1=C(OC)C(=O)C(Cc2cccc(C(=O)Nc3ccc(Cl)cc3Cl)c2O)=C(C)C1=O` [Example 177, N-[3-(5,6-Dimethoxy-3-methyl-1,4-benzoquinon-2-yl)methyl-2-hydroxybenzoyl]-2,4-dichloroaniline] returned a melting point of 147 to 150 °C.

Regarding `COC1=C(OC)C(=O)C(Cc2cccc(C(=O)Nc3ccc(N4CCOCC4)cc3)c2OC(C)=O)=C(C)C1=O` [Example 178, N-[3-(5,6-Dimethoxy-3-methyl-1,4-benzoquinon-2-yl)methyl-2-acetoxybenzoyl]-4-morpholinoaniline], the melting point is 168 to 171 °C. As for `COC1=C(OC)C(=O)C(Cc2cccc(C(=O)Nc3ccc(N4CCOCC4)cc3)c2O)=C(C)C1=O` [Example 179, N-[3-(5,6-Dimethoxy-3-methyl-1,4-benzoquinon-2-yl)methyl-2-hydroxybenzoyl]-4-morpholinoaniline], the figure is 177.5 to 180.5 °C; as for `COC1=C(OC)C(=O)C(Cc2ccc(O)c(C(=O)Nc3ccc(OC)nc3OC)c2)=C(C)C1=O` [Example 183, N-(2,6-Dimethoxypyridin-3-yl)-5-(5,6-dimethoxy-3-methyl-1,4-benzoquinon-2-yl)methyl-2-hydroxybenzamide], 119 to 121.5 °C; as for `COC1=C(OC)C(=O)C(Cc2ccc(OC(C)=O)c(C(=O)Nc3ccc(C(=O)O)cc3)c2)=C(C)C1=O` [Example 189, N-[5-(5,6-Dimethoxy-3-methyl-1,4-benzoquinon-2-yl)methyl-2-acetoxybenzoyl]-4-aminobenzoic acid], 199 to 201.5 °C.

Values taken from patent US7064124B2, “NF-κB inhibitor containing substituted benzoic acid derivative as active ingredient” (Daiichi Suntory Pharma Co., Ltd., priority 2001, dated 2006).
